This is an account of results in patent US12594283B2 (The Medical College of Wisconsin, Inc., priority 2019, dated 2026).

Read-outs that look alike come from different tables or passages of the source.

The target in series [1] is T1, mitochondrial complex III (Homo sapiens, UniProt P00156+P47985).
T1 construct: endogenous in cells; host or cells: MiaPaCa-2
Put plainly: Mitochondrial complex III-driven oxygen consumption rate (Seahorse XF96) in permeabilized MiaPaCa-2 cells. The class given is cell-based. The settings on record: 24 h treatment. On the procedure: FIG. 2. Effects of Mito-ATO analogs on the oxygen consumption induced by mitochondrial complexes I and III. […] MiaPaCa-2 cells were treated with Mito-ATO for 24 h. Relative complex I (1.5 mM malate, 10 mM pyruvate, 10 mM ADP)-driven OCR (left) and relative complex III (0.5 mM duroquinol, 10 mM ADP)-driven OCR (right) were monitored by XF-96 analyser. Either Rot (complex I inhibitor) or antimycin A (AA, complex III inhibitor) was acutely added and OCR assayed immediately. […] Dashed lines represent the fitting curves used for determination of the IC50 values. (n.a., not applicable).
The mitochondrial complex activities were assessed by measuring the oxygen consumption rate (OCR) using the Seahorse technique.^6,11-4 MiaPaCa-2 cells were treated separately with Mito-ATO analogs at different concentrations for 24 h and OCR was measured.
Mitochondrial bioenergetic function was measured in real time using the Seahorse XF 96 Extracellular Flux Analyzer (Agilent, North Billerica, MA).^11-13,22 The OCR-based assessment of mitochondrial complex activities was carried out on acutely permeabilized cells in the presence of different mitochondrial substrates, i.e., pyruvate/malate, for complex I and duroquinol for complex III.^11,14,31,32 Rot, malonate, and antimycin A (Sigma-Aldrich, St. Louis, MO) were used as specific inhibitors of mitochondrial complexes I, II, and III, respectively. Briefly, cells that were intact after treatments were immediately permeabilized using the Seahorse XF Plasma Membrane Permeabilizer (Agilent). The mitochondrial complex I-driven OCR was assayed in mannitol and sucrose buffer^31 containing 10 mM pyruvate and 1.5 mM malate (substrates for complex I) and 10 mM malonate (which inhibits complex II activities). The mitochondrial complex III-driven OCR was assayed in mannitol and sucrose buffer containing 0.5 mM duroquinol (substrate for complex III) and 1 μM Rot and 10 mM malonate (which inhibit both complex I and II activities). The mitochondrial complex-dependent oxygen consumption (calculated as Rot- or antimycin A-inhibitable OCR equals basal OCR less OCR after Rot or antimycin A injection) was plotted against concentrations to determine the IC50 values.

The target of another series is mitochondrial complex I (Homo sapiens, UniProt O75251+O75306+P03886). As to the kind of experiment: Mitochondrial complex I-driven oxygen consumption rate (Seahorse XF96) in permeabilized MiaPaCa-2 cells. The class given is cell-based. As to conditions: 24 h treatment. As to the method:
FIG. 2. […] Relative complex I (1.5 mM malate, 10 mM pyruvate, 10 mM ADP)-driven OCR (left) and relative complex III (0.5 mM duroquinol, 10 mM ADP)-driven OCR (right) were monitored by XF-96 analyser. Either Rot (complex I inhibitor) or antimycin A (AA, complex III inhibitor) was acutely added and OCR assayed immediately. […] Dashed lines represent the fitting curves used for determination of the IC50 values.
Briefly, cells that were intact after treatments were immediately permeabilized using the Seahorse XF Plasma Membrane Permeabilizer (Agilent). The mitochondrial complex I-driven OCR was assayed in mannitol and sucrose buffer^31 containing 10 mM pyruvate and 1.5 mM malate (substrates for complex I) and 10 mM malonate (which inhibits complex II activities). The mitochondrial complex III-driven OCR was assayed in mannitol and sucrose buffer containing 0.5 mM duroquinol (substrate for complex III) and 1 μM Rot and 10 mM malonate (which inhibit both complex I and II activities). The mitochondrial complex-dependent oxygen consumption (calculated as Rot- or antimycin A-inhibitable OCR equals basal OCR less OCR after Rot or antimycin A injection) was plotted against concentrations to determine the IC50 values.

For series [2], the system named is cyt bc1. The settings on record: P. falciparum, Y265S mutations (so in the source); cited from earlier work.
The target in series [3] is cyt bc1 (Homo sapiens, UniProt P00156). The settings on record: mammalian cells; cited from earlier work.
cyt bc1 (Homo sapiens, UniProt P00156), sequence (P00156 whole entry): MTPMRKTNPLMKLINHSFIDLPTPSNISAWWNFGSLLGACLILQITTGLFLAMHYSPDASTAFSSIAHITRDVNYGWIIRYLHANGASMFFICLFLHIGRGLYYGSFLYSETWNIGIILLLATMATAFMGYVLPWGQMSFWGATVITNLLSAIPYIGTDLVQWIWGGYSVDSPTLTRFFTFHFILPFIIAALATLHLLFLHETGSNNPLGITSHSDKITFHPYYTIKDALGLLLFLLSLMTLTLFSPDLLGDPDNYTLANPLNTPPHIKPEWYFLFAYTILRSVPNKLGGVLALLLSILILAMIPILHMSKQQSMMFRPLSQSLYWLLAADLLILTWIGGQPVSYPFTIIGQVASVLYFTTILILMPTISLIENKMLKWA
A further series has as its system MiaPaCa-2 cells. Put plainly: MiaPaCa-2 cell proliferation, IncuCyte live-cell imaging (cell confluence). The class given is cell-based, human. As to conditions: for IC50: Homo sapiens; for antiproliferative effect compared with corresponding Mito-ATO analog: MiaPaCa-2 cells, controls lacking TPP+ (FIG. 9). The text has this:
FIG. 1. […] (A) Chemical structures of ATO and Mito-ATO analogs. […] Cell proliferation was monitored in real-time with the continuous presence of indicated treatments until the end of each experiment. […] Dashed lines represent the fitting curves used to determine their IC50 values as indicated.
The IncuCyte Live-Cell Imaging system (IncuCyte Essen Bioscience Inc., Ann Arbor, MI) was used to monitor cell proliferation.^11-13 As shown in previous publications,^11,12 this imaging system is probe-free and noninvasive, and enables continuous monitoring of cell confluence over several days. The increase in the percentage of cell confluence was used as a surrogate marker of cell proliferation. In a 96-well plate, cells were plated at 1,000 cells per well in triplicates and left to adhere overnight.

Series [4] deals with CD4+ T cells from SMARTA triple reporter mice. Put plainly: In vitro differentiation of CD4+ T regulatory cells, flow cytometry. As to conditions: for Treg (FoxP3+CD25+) differentiation and/or survival: six days culture with TGFβ and IL-2, ATO, butyl-ATO, decyl-ATO up to 60 μM. It counts as cell-based, mouse. The text has this: FIG. 5. In vitro differentiation of CD4^+ T regulatory cells under varying concentrations of Mito-ATOs and controls. After six days of culture, cells were stained for flow cytometry analysis. (left) Live/dead staining to assess the percentage of live CD4+ T cells within the lymphocyte gate. (middle) Teff cell function is shown as the frequency of IFNγ-GFP positive cells within the live CD4^+ T cells. (right) The percentage of Treg cells is shown as the frequency of FoxP3^+CD25^+ cells within the live CD4^+ T cells.
After six days, cells were stained to assess viability, phenotype, and function using the flow cytometry.
Mice. SMARTA triple reporter mice were generated in the following manner. First, IL-10 and IL-21 double-reporter mice^33 were generated by cross-breeding IL-21tRFP mice^34-35 with 10 BiT mice (kindly provided by Dr. Casey Weaver, University of Alabama at Birmingham). Double reporter mice were then crossed with GREAT (interferon-gamma reporter with endogenous polyA transcript) mice^36 from Jackson Laboratory (Stock No. 017581). These triple-reporter mice were then crossed with SMARTA mice^37 (kindly provided by Dr. Dorian McGavern, National Institutes of Health). Mice were bred and maintained in a closed breeding facility, and mouse handling conformed to the requirements of the Medical College of Wisconsin Institutional Animal Care and Use Committee guidelines. All experimental protocols were approved by the Medical College of Wisconsin Institutional Animal Care and Use Committee.
Cell culture. To differentiate CD4^+ T cells into a T regulatory cell phenotype, splenocytes from SMARTA triple-reporter mice were processed and the red blood cell lysed using an ACK (ammonium-chloride-potassium) lysis buffer. The cells were then activated with 1 μg/mL […] peptide (GenScript, Piscataway, NJ) and 5 ng/mL TGF-β1 (Shenandoah Biotechnology, Inc., Warwick, PA). […] Cells were cultured for six days and split once cells reached confluency; cells were replenished with IL-2 and compound accordingly. After six days in culture, cells were stained to assess the viability and phenotypic analysis via flow cytometry. LIVE/DEAD fixable violet or aqua dead cell stain (Invitrogen, Carlsbad, CA) was used to assess cell viability. The following antibodies were used for flow cytometry staining: PercP anti-mouse CD4 (clone: GK1.5; BioLegend, San Diego, CA), APC/Cy7 anti-mouse CD25 (clone: PC61; BioLegend), and PE anti-mouse FOXP3 (clone: FJK-16S; eBioscience, San Diego, CA). Flow cytometry data were acquired using a BD LSRII (BD Biosciences, CA) flow cytometer and analysed using FlowJo (Treestar, Inc., Ashland, OR).
For orientation: Flow cytometry measures light scatter and fluorescence of single cells or particles in a stream.

Another series has as its system MiaPaCa-2 and A549 cells. Put plainly: Cellular uptake by LC-MS/MS. The settings on record: Mito10-ATO 0.1 and 1 μM, ATO 1-10 μM; 1, 2, 4 and 24 h. The class given is cell-based, human. As to the method: The compounds were extracted according to the published experimental protocol.^11,12 Briefly, cells were washed twice with ice-cold DPBS (Dulbecco's Phosphate Buffered Saline) and harvested. The cell pellet was immediately frozen in liquid nitrogen and stored at −80° C. For the extraction, the pellet was homogenized in 200 μl DPBS (2 μl were taken for protein assay) and extracted twice with a dichloromethane:methanol (2:1) mixture. The organic layers were combined and dried using a SpeedVac concentrator (Thermo Fisher Scientific, Waltham MA). The dry residue was dissolved in ice-cold methanol and taken for LC-MS/MS analysis. LC-MS/MS analyses were performed using a Kinetex Phenyl-Hexyl column (50 mm×2.1 mm, 1.7 μm; Phenomenex, Torrance, CA) equilibrated with a water:acetonitrile mixture (4:1) containing 0.1% formic acid. Compounds were eluted by increasing the content of acetonitrile from 20% to 100% over 4 min and detected using the MRM (multiple reaction monitoring) mode.

mitochondrial complex I, sequence (O75306 34-463): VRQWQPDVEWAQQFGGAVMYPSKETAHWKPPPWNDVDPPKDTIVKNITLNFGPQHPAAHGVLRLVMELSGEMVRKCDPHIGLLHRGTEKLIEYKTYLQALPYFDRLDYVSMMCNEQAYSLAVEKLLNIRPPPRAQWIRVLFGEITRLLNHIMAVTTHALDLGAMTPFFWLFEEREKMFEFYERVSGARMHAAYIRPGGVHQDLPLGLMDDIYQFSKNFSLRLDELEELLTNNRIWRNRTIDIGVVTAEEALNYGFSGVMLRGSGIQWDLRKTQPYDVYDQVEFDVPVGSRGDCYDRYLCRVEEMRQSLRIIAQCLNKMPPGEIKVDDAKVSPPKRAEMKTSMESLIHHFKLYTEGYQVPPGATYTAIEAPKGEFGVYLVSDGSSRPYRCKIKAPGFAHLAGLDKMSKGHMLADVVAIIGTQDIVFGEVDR
mitochondrial complex I, sequence (O75251 39-213): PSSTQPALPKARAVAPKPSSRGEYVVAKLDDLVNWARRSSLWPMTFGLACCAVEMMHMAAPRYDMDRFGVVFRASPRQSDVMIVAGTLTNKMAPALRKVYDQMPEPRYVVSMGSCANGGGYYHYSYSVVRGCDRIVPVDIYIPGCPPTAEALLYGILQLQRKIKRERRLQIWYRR
mitochondrial complex I, sequence (P03886 whole entry): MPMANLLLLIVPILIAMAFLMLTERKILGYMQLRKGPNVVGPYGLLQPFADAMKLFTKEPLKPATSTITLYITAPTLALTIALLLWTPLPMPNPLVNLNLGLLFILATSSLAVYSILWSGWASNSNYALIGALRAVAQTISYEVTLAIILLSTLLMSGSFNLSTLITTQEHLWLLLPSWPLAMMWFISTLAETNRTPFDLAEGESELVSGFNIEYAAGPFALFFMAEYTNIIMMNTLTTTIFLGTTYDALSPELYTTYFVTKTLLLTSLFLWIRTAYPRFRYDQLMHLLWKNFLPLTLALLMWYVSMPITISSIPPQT

With `O=C1C(OCCCCCCCCCCCCCCCC[P+](c2ccccc2)(c2ccccc2)c2ccccc2)=C([C@H]2CC[C@H](c3ccc(Cl)cc3)CC2)C(=O)c2ccccc21` [Mito16-ATO], in series [1], the “inhibition of complex III-induced oxygen consumption” value was “did not inhibit”. In addition, the “inhibition of complex I-induced oxygen consumption” value at mitochondrial complex I was “inhibited only the complex I-induced oxygen consumption”.
Consider `O=C1C(O)=C([C@H]2CC[C@H](c3ccc(Cl)cc3)CC2)C(=O)c2ccccc21` [ATO, trans-2-[4-(4-chlorophenyl)cyclohexyl]-3-hydroxy-1,4-naphthalene-dione], for which the “increase in IC50 for ATO caused by mutation at Q0 site” value in the series with cyt bc1 [2] is reported as ~9,000 fold. Also, the “IC50 for inhibition of cyt bc1” value at cyt bc1 [3] is recorded as “micromolar range”. Moreover, in the series with MiaPaCa-2 cells (MIA PaCa-2, read-out: IC50, inhibition of cell proliferation (cell confluence)), the IC50 was determined as 18 µM. Besides, in series [4], the “Treg (FoxP3+CD25+) differentiation and/or survival” value is given as “did not inhibit Treg differentiation and/or survival”. Besides, the “cellular uptake / intracellular accumulation” value in the series on MiaPaCa-2 and A549 cells is “uptake was considerably lower and did not accumulate in cancer cells over a 24 h period”.
Consider `O=C1C(OCCCC[P+](c2ccccc2)(c2ccccc2)c2ccccc2)=C([C@H]2CC[C@H](c3ccc(Cl)cc3)CC2)C(=O)c2ccccc21` [Mito4-ATO], for which the “inhibition of complex III-induced oxygen consumption” value in series [1] was “potently inhibit”. Besides, at mitochondrial complex I, the “inhibition of complex I-induced oxygen consumption” value is “potently inhibit”. In addition, the “Treg (FoxP3+CD25+) differentiation and/or survival” value in series [4] is on record as “inhibited Foxp3^+ Treg differentiation and/or survival”. The “Teff cell IFNγ production” value in series [4] (six days culture, IFNγ-GFP positive cells within live CD4+ T cells) is given as “promoted Teff cell IFNγ production in a dose-dependent manner”.
On to `O=C1C(OCCCCCCCCCCCC[P+](c2ccccc2)(c2ccccc2)c2ccccc2)=C([C@H]2CC[C@H](c3ccc(Cl)cc3)CC2)C(=O)c2ccccc21` [Mito12-ATO], for which, in series [1], the “inhibition of complex III-induced oxygen consumption” value is “did not inhibit”. Also, at mitochondrial complex I, the “inhibition of complex I-induced oxygen consumption” value is recorded as “inhibited only the complex I-induced oxygen consumption”. For the same compound, the IC50 in the series with MiaPaCa-2 cells (MIA PaCa-2, MiaPaCa-2 pancreatic cancer cells, continuous treatment, read as control reaches 98% confluency, read-out: IC50, inhibition of cell proliferation (cell confluence)) stood at 0.35 µM. For the same compound, the “Treg (FoxP3+CD25+) differentiation and/or survival” value in series [4] is “did not appreciably inhibit Treg differentiation”.
Take `CCCCOC1=C([C@H]2CC[C@H](c3ccc(Cl)cc3)CC2)C(=O)c2ccccc2C1=O` [Butyl-ATO, reference compound]: the “antiproliferative effect compared with corresponding Mito-ATO analog” value in the series with MiaPaCa-2 cells is “much less effective than their corresponding Mito-ATO analogs”. Moreover, the “Treg (FoxP3+CD25+) differentiation and/or survival” value in series [4] is “did not inhibit Treg differentiation and/or survival”.
In the same order, the values of `CCCCCCCCCCOC1=C([C@H]2CC[C@H](c3ccc(Cl)cc3)CC2)C(=O)c2ccccc2C1=O` [Decyl-ATO, reference compound] are “much less effective than their corresponding Mito-ATO analogs” and “did not inhibit Treg differentiation and/or survival”.
